According to ChEMBL document CHEMBL4507276 (2021):

Tests used:
Details in all cases: Compound concentration 1000.0 nM
[1] = biological target: T1, G protein-coupled receptor kinase 3 (Homo sapiens) (UniProt P35626)
T1 sequence (whole entry): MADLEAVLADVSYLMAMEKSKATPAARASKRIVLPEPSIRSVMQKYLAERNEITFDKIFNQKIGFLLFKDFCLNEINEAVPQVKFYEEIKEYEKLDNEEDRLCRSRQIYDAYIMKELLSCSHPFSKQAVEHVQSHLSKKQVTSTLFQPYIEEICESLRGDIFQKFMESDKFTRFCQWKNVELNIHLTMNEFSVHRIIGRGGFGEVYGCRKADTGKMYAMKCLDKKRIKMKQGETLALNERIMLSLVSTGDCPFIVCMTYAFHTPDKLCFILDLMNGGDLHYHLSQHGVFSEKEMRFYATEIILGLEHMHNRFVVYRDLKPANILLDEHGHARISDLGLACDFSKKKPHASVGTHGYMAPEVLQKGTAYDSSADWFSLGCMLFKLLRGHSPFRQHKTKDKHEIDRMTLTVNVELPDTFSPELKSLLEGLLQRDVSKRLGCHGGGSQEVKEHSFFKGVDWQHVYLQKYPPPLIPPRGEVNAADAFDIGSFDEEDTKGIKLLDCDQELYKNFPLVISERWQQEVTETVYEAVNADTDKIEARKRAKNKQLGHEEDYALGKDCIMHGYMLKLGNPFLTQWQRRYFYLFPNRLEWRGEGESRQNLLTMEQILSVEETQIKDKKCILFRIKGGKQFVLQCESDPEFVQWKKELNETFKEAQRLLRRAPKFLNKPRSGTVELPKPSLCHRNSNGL

[2] = biological target: Serine/threonine-protein kinase WNK3 (Homo sapiens) (UniProt Q9BYP7)
[3] = biological target: Myosin-IIIa (Homo sapiens) (UniProt Q8NEV4)
[4] = biological target: Mast/stem cell growth factor receptor Kit (Homo sapiens) (UniProt P10721)
[5] = biological target: Receptor-interacting serine/threonine-protein kinase 1 (Homo sapiens) (UniProt Q13546)
[6] = biological target: Macrophage colony-stimulating factor 1 receptor (Homo sapiens) (UniProt P07333)
[7] = biological target: Hormonally up-regulated neu tumor-associated kinase (Homo sapiens) (UniProt P57058)
[8] = biological target: T2, Testis-specific serine/threonine-protein kinase 3 (Homo sapiens) (UniProt Q96PN8)
T2 sequence (whole entry): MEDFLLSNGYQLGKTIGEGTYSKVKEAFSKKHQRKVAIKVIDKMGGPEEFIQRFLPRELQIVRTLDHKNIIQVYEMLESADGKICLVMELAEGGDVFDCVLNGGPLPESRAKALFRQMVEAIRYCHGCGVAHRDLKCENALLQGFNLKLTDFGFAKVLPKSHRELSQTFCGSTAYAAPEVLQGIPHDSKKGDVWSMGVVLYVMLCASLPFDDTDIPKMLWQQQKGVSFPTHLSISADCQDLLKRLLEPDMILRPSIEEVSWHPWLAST

[9] = biological target: 1-phosphatidylinositol 3-phosphate 5-kinase (Homo sapiens) (UniProt Q9Y2I7)
[10] = biological target: T3, Serine/threonine-protein kinase TAO3 (Homo sapiens) (UniProt Q9H2K8)
T3 sequence (whole entry): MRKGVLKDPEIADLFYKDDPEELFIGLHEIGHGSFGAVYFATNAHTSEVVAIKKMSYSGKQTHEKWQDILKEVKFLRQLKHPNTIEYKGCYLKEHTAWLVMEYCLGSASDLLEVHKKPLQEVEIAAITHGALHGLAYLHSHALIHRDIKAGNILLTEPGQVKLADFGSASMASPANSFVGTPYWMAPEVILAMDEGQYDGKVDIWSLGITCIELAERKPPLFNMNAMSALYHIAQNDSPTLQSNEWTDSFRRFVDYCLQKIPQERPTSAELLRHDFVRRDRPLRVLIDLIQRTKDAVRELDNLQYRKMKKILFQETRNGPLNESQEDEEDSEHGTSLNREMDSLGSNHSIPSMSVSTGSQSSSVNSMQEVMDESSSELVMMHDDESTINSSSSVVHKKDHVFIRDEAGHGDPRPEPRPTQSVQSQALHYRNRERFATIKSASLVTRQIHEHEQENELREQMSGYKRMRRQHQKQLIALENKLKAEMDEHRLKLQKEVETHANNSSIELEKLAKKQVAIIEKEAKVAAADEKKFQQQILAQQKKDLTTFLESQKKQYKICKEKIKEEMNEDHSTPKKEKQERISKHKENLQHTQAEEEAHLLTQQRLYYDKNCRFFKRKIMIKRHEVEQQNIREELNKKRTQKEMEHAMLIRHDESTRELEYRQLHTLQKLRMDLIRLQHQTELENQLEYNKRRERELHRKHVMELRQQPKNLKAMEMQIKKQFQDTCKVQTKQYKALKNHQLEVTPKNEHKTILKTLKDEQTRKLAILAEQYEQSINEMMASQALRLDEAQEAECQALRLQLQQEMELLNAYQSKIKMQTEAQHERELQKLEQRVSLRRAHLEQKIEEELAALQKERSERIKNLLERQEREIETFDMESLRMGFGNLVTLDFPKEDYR

[11] = biological target: Bone morphogenetic protein receptor type-1A (Homo sapiens) (UniProt P36894)
[12] = biological target: Phosphatidylinositol 4,5-bisphosphate 3-kinase catalytic subunit delta isoform (Homo sapiens) (UniProt O00329)
[13] = biological target: Homeodomain-interacting protein kinase 2 (Homo sapiens) (UniProt Q9H2X6)

Measured: residual activity

Sequence of Serine/threonine-protein kinase WNK3 (Homo sapiens) (Q9BYP7 whole entry): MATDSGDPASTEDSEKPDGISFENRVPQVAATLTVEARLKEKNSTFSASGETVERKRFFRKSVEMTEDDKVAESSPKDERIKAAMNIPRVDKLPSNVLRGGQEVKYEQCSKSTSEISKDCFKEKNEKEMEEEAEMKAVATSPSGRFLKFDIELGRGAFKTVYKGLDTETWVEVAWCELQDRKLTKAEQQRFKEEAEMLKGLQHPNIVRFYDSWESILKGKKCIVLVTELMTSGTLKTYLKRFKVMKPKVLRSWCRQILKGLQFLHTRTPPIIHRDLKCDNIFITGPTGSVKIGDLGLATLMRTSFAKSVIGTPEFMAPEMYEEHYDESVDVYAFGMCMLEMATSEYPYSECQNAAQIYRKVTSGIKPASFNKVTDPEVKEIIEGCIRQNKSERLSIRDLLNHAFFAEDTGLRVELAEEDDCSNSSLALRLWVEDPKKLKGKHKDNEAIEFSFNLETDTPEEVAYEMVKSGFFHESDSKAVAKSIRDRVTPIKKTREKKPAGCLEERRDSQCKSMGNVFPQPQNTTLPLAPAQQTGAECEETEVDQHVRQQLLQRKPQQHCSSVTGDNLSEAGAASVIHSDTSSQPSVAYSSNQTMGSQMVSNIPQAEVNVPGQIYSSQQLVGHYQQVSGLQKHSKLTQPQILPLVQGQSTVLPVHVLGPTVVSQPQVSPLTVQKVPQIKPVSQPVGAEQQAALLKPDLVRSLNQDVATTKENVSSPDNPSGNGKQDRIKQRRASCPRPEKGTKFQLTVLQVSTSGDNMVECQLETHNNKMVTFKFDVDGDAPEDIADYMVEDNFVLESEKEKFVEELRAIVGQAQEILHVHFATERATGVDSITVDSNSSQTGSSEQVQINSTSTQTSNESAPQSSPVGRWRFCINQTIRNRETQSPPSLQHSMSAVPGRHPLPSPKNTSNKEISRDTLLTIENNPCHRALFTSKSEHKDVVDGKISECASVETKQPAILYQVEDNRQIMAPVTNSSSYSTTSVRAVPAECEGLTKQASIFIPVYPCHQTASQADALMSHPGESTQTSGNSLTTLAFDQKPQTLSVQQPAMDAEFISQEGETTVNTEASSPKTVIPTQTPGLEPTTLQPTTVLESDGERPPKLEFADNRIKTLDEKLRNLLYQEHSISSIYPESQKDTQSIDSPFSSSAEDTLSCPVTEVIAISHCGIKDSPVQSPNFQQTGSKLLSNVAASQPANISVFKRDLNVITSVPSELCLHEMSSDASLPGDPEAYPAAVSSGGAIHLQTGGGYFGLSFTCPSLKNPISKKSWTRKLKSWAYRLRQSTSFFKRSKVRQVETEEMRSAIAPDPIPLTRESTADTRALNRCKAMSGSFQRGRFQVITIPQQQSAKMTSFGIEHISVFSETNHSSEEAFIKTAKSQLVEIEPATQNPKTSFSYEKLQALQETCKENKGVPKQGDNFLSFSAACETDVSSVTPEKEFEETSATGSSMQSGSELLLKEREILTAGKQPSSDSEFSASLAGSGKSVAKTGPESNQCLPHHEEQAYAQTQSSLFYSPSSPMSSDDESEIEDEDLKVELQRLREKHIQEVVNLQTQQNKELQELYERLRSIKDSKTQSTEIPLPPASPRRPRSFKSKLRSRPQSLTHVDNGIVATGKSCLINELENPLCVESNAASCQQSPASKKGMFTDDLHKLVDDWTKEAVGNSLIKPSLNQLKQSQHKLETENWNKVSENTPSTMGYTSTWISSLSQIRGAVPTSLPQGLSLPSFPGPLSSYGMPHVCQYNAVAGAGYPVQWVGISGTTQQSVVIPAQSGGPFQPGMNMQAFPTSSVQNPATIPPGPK
Sequence of Receptor-interacting serine/threonine-protein kinase 1 (Homo sapiens) (Q13546 whole entry): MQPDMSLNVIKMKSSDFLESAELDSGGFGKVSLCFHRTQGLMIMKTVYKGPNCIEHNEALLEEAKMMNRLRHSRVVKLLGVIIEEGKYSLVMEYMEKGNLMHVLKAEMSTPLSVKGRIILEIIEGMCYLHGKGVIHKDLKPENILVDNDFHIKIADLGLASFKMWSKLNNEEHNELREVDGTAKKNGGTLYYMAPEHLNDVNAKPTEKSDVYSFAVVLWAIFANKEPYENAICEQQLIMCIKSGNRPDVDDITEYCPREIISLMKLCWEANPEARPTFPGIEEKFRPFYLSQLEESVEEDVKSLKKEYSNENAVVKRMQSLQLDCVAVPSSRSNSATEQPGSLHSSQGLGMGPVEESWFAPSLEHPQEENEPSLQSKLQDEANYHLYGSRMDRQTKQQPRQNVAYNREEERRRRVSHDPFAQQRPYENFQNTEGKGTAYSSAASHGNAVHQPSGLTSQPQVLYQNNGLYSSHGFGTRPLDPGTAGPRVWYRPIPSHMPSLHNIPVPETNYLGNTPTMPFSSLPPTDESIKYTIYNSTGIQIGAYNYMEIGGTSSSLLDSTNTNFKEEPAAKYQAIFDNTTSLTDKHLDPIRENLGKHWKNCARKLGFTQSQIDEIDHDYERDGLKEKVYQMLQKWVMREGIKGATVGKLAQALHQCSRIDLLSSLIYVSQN
Sequence of Bone morphogenetic protein receptor type-1A (Homo sapiens) (P36894 whole entry, canonical isoform): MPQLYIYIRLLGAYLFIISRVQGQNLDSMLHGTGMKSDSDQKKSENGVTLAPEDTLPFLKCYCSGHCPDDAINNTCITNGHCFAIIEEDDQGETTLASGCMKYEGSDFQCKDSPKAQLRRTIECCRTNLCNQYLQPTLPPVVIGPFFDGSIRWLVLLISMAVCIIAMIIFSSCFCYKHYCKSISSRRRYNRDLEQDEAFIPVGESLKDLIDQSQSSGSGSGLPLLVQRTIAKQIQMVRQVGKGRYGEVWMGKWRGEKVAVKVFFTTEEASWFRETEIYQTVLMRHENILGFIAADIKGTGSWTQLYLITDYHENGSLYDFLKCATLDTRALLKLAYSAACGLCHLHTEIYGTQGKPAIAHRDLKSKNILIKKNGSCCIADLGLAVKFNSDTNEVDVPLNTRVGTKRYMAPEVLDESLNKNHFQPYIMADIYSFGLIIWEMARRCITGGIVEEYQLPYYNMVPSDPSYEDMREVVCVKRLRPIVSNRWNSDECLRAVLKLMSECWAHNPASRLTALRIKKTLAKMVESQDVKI
Sequence of Myosin-IIIa (Homo sapiens) (Q8NEV4 whole entry): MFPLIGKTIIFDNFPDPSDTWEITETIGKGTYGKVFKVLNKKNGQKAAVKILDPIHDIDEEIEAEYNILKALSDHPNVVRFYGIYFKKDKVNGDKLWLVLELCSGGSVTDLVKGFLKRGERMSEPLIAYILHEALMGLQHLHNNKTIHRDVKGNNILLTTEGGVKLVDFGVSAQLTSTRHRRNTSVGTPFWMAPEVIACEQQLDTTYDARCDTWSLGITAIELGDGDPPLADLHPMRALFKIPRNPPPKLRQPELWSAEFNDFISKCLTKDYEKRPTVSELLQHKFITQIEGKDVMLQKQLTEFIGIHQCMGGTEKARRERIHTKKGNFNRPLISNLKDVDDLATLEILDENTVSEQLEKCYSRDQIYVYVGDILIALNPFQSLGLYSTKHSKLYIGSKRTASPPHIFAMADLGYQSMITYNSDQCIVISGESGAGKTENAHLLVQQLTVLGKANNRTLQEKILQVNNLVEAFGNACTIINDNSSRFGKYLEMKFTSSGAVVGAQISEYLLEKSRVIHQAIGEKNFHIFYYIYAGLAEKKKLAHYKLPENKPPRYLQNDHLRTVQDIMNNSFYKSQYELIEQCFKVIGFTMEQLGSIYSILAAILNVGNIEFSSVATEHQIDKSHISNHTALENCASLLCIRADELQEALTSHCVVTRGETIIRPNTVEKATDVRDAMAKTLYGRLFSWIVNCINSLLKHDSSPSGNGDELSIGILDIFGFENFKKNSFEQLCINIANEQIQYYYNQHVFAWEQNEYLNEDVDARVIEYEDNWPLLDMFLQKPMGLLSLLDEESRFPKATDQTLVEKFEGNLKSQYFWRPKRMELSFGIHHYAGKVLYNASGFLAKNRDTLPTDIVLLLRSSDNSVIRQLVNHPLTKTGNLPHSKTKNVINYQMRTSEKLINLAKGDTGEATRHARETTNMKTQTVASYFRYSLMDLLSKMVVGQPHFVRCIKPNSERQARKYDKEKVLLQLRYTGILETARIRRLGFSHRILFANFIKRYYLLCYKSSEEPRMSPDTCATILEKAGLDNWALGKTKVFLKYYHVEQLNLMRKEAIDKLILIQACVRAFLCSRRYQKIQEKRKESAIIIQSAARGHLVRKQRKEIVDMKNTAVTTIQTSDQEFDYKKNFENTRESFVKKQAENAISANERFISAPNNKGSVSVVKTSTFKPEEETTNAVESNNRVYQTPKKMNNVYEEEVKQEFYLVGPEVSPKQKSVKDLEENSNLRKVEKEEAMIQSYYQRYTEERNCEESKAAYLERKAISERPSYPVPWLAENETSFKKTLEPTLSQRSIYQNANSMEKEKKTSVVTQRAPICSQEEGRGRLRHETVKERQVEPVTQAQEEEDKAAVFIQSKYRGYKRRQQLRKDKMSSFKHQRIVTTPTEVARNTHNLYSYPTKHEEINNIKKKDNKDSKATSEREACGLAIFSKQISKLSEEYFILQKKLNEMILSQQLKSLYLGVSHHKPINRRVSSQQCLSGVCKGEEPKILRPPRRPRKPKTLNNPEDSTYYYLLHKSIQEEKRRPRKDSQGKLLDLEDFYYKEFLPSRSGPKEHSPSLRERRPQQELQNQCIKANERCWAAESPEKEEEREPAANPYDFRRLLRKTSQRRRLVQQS

CN(C)C(=O)Cn1cc(-c2nc(C3(c4ccc(-c5cnc(N)nc5)cc4)CC3)no2)cn1 [BI 0153]
inactive: [1] 69% | [2] 87% | [3] 100% | [4] 93% | [5] 89% | [6] 84% | [7] 96% | [8] 97% | [9] 98% | [10] 67% | [11] 87% | [12] 100% | [13] 94%

CN(C)C(=O)Cn1cc(-c2nc([C@@](C)(c3ccc(-c4cnc(N)nc4)cc3)C3CC3)no2)cn1 [BI 665915]
inactive: [1] 86% | [2] 76% | [3] 100% | [4] 87% | [5] 82% | [6] 96% | [7] 100% | [8] 68% | [9] 68% | [10] 89% | [11] 100% | [12] 93% | [13] 87%
